According to article PMC7483467, “A small molecular compound CC1007 induces cross-lineage differentiation by inhibiting HDAC7 expression and HDAC7/MEF2C interaction in BCR-ABL1^− pre-B-ALL” (Cell Death & Disease, 2020):

Biological target: T1, MEF2C (Homo sapiens, UniProt Q06413)
T1 construct: endogenous intracellular protein in Nalm-6 and primary pre-B-ALL cells; untagged; detected by western blot
Test: cellular thermal shift assay (CETSA and ITDRF-CETSA), western blot read-out
Format: cell-based
Conditions: Nalm-6 and primary BCR-ABL1- pre-B-ALL cells; dose-response at 52 °C; endogenous MEF2C

T1 sequence (Q06413 whole entry): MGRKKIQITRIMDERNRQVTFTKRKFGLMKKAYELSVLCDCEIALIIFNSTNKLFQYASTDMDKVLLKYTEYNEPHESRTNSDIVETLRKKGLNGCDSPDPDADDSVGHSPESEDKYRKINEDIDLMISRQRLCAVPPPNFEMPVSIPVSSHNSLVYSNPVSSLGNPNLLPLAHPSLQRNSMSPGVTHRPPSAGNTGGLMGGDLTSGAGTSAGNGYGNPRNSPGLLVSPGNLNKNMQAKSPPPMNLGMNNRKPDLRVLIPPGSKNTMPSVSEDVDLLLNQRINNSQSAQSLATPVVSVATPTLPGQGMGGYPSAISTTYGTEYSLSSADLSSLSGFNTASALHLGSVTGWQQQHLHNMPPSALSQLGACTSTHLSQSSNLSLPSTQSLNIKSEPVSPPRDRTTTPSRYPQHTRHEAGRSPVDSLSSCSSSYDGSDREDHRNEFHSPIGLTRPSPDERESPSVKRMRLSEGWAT

Nc1ccccc1NC(=O)CCCCCC(=O)Nc1cccc(Br)c1 [CC1007]
thermal stabilisation (CETSA): These data indicate that CC1007 directly interacts with intracellular MEF2C.
